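A five-concentration, 48-hour dose response in 96-well plates underlies each endpoint, interpolated linearly between surrounding concentrations. Definition used: TGI = concentration required for complete inhibition of growth.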 A value given as a limit tells only on which side of the number the result lay.

The subject of one test is RPMI-8226 leukemia. Nature of the test: NCI tumour cell line growth inhibition, 48 h.
The molecule `CC(=O)Nc1ccc(-c2nc3cc(Cl)ccc3o2)cc1` showed a TGI greater than 50 µM.
Same read-out and setting: next, `O=C(/C=C/C=C/c1ccccc1)c1ccc2c(c1)CCCC2`: greater than 100 µM.

The subject of the next test is HCT-116 colon. Nature of the test: NCI tumour cell line growth inhibition, 48 h.
The molecule `O=C(c1cc(Cl)cc(Cl)c1)N1CCN(C(=O)c2cc(Cl)cc(Cl)c2)C1=S` registered a TGI of 30 µM.
Same read-out and setting: under `C[C@@H]1C[C@](O)([C@@H](C)Cl)C(=O)O[C@@H]2CCN3CC=C(COC(=O)[C@]1(C)O)[C@H]23` stands greater than 100 µM.
On the same count and under the same terms, under `CC(=O)Nc1ccc(-c2nc3cc(Cl)ccc3o2)cc1` stands greater than 50 µM; under `O=C(/C=C/C=C/c1ccccc1)c1ccc2c(c1)CCCC2`, greater than 100 µM.

A further test concerns SF-295 CNS. Nature of the test: NCI tumour cell line growth inhibition, 48 h.
In the case of `O=C(c1cc(Cl)cc(Cl)c1)N1CCN(C(=O)c2cc(Cl)cc(Cl)c2)C1=S`, the TGI is 44.7 µM.
For `C[C@@H]1C[C@](O)([C@@H](C)Cl)C(=O)O[C@@H]2CCN3CC=C(COC(=O)[C@]1(C)O)[C@H]23`, the TGI was greater than 100 µM.
On to `CC(=O)Nc1ccc(-c2nc3cc(Cl)ccc3o2)cc1`, for which the TGI was greater than 50 µM.
In the case of `O=C(/C=C/C=C/c1ccccc1)c1ccc2c(c1)CCCC2`, the TGI is greater than 100 µM.

For a further test, the system named is SN12C renal. Put plainly: NCI tumour cell line growth inhibition, 48 h.
Take `O=C(c1cc(Cl)cc(Cl)c1)N1CCN(C(=O)c2cc(Cl)cc(Cl)c2)C1=S`: the TGI amounted to 31.1 µM.
`CC(=O)Nc1ccc(-c2nc3cc(Cl)ccc3o2)cc1` displayed a TGI greater than 50 µM.
On to `O=C(/C=C/C=C/c1ccccc1)c1ccc2c(c1)CCCC2`, for which the TGI was greater than 100 µM.

In a further test the test system is DU-145 prostate. Put plainly: NCI tumour cell line growth inhibition, 48 h.
`O=C(c1cc(Cl)cc(Cl)c1)N1CCN(C(=O)c2cc(Cl)cc(Cl)c2)C1=S` gave a TGI of 21.5 µM.
For the molecule `C[C@@H]1C[C@](O)([C@@H](C)Cl)C(=O)O[C@@H]2CCN3CC=C(COC(=O)[C@]1(C)O)[C@H]23`, the TGI was greater than 100 µM.
Turning to `CC(=O)Nc1ccc(-c2nc3cc(Cl)ccc3o2)cc1`, the TGI is greater than 50 µM.
`O=C(/C=C/C=C/c1ccccc1)c1ccc2c(c1)CCCC2`: the TGI is 92.3 µM.

A further test relates to MDA-MB-231 breast. Nature of the test: NCI tumour cell line growth inhibition, 48 h.
As to `O=C(c1cc(Cl)cc(Cl)c1)N1CCN(C(=O)c2cc(Cl)cc(Cl)c2)C1=S`, the TGI is 31.9 µM.
For `C[C@@H]1C[C@](O)([C@@H](C)Cl)C(=O)O[C@@H]2CCN3CC=C(COC(=O)[C@]1(C)O)[C@H]23`, the TGI is greater than 100 µM.
`CC(=O)Nc1ccc(-c2nc3cc(Cl)ccc3o2)cc1` registered a TGI greater than 50 µM.
Same read-out and setting: under `O=C(/C=C/C=C/c1ccccc1)c1ccc2c(c1)CCCC2` stands greater than 100 µM.

In the next test the test system is SW-620 colon. Put plainly: NCI tumour cell line growth inhibition, 48 h.
On to `O=C(c1cc(Cl)cc(Cl)c1)N1CCN(C(=O)c2cc(Cl)cc(Cl)c2)C1=S`, for which the TGI was greater than 50.5 µM.
The same measure, in the same setting: under `C[C@@H]1C[C@](O)([C@@H](C)Cl)C(=O)O[C@@H]2CCN3CC=C(COC(=O)[C@]1(C)O)[C@H]23` stands greater than 100 µM; under `CC(=O)Nc1ccc(-c2nc3cc(Cl)ccc3o2)cc1`, greater than 50 µM; under `O=C(/C=C/C=C/c1ccccc1)c1ccc2c(c1)CCCC2`, greater than 100 µM.

The test system of another test is T-47D breast. Nature of the test: NCI tumour cell line growth inhibition, 48 h.
Molecule `O=C(c1cc(Cl)cc(Cl)c1)N1CCN(C(=O)c2cc(Cl)cc(Cl)c2)C1=S` had a TGI of 45.2 µM.
On the same count and under the same terms, under `C[C@@H]1C[C@](O)([C@@H](C)Cl)C(=O)O[C@@H]2CCN3CC=C(COC(=O)[C@]1(C)O)[C@H]23` stands greater than 100 µM; under `CC(=O)Nc1ccc(-c2nc3cc(Cl)ccc3o2)cc1`, greater than 50 µM.
The same measure, in the same setting: next, `O=C(/C=C/C=C/c1ccccc1)c1ccc2c(c1)CCCC2`: 93.9 µM.

The subject of another test is LOX IMVI melanoma. Put plainly: NCI tumour cell line growth inhibition, 48 h.
In turn, `O=C(c1cc(Cl)cc(Cl)c1)N1CCN(C(=O)c2cc(Cl)cc(Cl)c2)C1=S` returned a TGI of 11.6 µM.
For `C[C@@H]1C[C@](O)([C@@H](C)Cl)C(=O)O[C@@H]2CCN3CC=C(COC(=O)[C@]1(C)O)[C@H]23`, the TGI was greater than 100 µM.
In the case of `CC(=O)Nc1ccc(-c2nc3cc(Cl)ccc3o2)cc1`, the TGI was greater than 50 µM.
`O=C(/C=C/C=C/c1ccccc1)c1ccc2c(c1)CCCC2` yielded a TGI greater than 100 µM.

The next test relates to KM12 colon. Nature of the test: NCI tumour cell line growth inhibition, 48 h.
As for `O=C(c1cc(Cl)cc(Cl)c1)N1CCN(C(=O)c2cc(Cl)cc(Cl)c2)C1=S`, the TGI worked out at 24.8 µM.
In the case of `C[C@@H]1C[C@](O)([C@@H](C)Cl)C(=O)O[C@@H]2CCN3CC=C(COC(=O)[C@]1(C)O)[C@H]23`, the TGI is greater than 100 µM.
Still for that read-out and setting: next, `CC(=O)Nc1ccc(-c2nc3cc(Cl)ccc3o2)cc1`: greater than 50 µM; `O=C(/C=C/C=C/c1ccccc1)c1ccc2c(c1)CCCC2`: greater than 100 µM.

The test system of another test is UO-31 renal. Put plainly: NCI tumour cell line growth inhibition, 48 h.
`O=C(c1cc(Cl)cc(Cl)c1)N1CCN(C(=O)c2cc(Cl)cc(Cl)c2)C1=S`: the TGI turned out to be 6.08 µM.
`C[C@@H]1C[C@](O)([C@@H](C)Cl)C(=O)O[C@@H]2CCN3CC=C(COC(=O)[C@]1(C)O)[C@H]23`: the TGI was greater than 10 µM.
`CC(=O)Nc1ccc(-c2nc3cc(Cl)ccc3o2)cc1` gave a TGI greater than 50 µM.
For the molecule `O=C(/C=C/C=C/c1ccccc1)c1ccc2c(c1)CCCC2`, the TGI was greater than 100 µM.

The next test relates to COLO 205 colon. Nature of the test: NCI tumour cell line growth inhibition, 48 h.
For `O=C(c1cc(Cl)cc(Cl)c1)N1CCN(C(=O)c2cc(Cl)cc(Cl)c2)C1=S`, the TGI is 35.2 µM.
The same measure, in the same setting: next, `C[C@@H]1C[C@](O)([C@@H](C)Cl)C(=O)O[C@@H]2CCN3CC=C(COC(=O)[C@]1(C)O)[C@H]23`: greater than 100 µM; `CC(=O)Nc1ccc(-c2nc3cc(Cl)ccc3o2)cc1`: greater than 50 µM.
In the case of `O=C(/C=C/C=C/c1ccccc1)c1ccc2c(c1)CCCC2`, the TGI is greater than 100 µM.

The next test deals with BT-549 breast. Nature of the test: NCI tumour cell line growth inhibition, 48 h.
`O=C(c1cc(Cl)cc(Cl)c1)N1CCN(C(=O)c2cc(Cl)cc(Cl)c2)C1=S` showed a TGI of 70.8 µM.
Same read-out and setting: next, `C[C@@H]1C[C@](O)([C@@H](C)Cl)C(=O)O[C@@H]2CCN3CC=C(COC(=O)[C@]1(C)O)[C@H]23`: greater than 100 µM; `CC(=O)Nc1ccc(-c2nc3cc(Cl)ccc3o2)cc1`: greater than 50 µM.
On to `O=C(/C=C/C=C/c1ccccc1)c1ccc2c(c1)CCCC2`, for which the TGI was determined as 77.4 µM.

The next test concerns IGROV1 ovarian. Put plainly: NCI tumour cell line growth inhibition, 48 h.
Regarding `O=C(c1cc(Cl)cc(Cl)c1)N1CCN(C(=O)c2cc(Cl)cc(Cl)c2)C1=S`, the TGI was determined as 32.8 µM.
The molecule `C[C@@H]1C[C@](O)([C@@H](C)Cl)C(=O)O[C@@H]2CCN3CC=C(COC(=O)[C@]1(C)O)[C@H]23` registered a TGI greater than 100 µM.
For the molecule `CC(=O)Nc1ccc(-c2nc3cc(Cl)ccc3o2)cc1`, the TGI was greater than 50 µM.
The molecule `O=C(/C=C/C=C/c1ccccc1)c1ccc2c(c1)CCCC2` registered a TGI greater than 100 µM.

Another test has as its system SK-MEL-5 melanoma. Nature of the test: NCI tumour cell line growth inhibition, 48 h.
Take `O=C(c1cc(Cl)cc(Cl)c1)N1CCN(C(=O)c2cc(Cl)cc(Cl)c2)C1=S`: the TGI came to 33.7 µM.
As for `C[C@@H]1C[C@](O)([C@@H](C)Cl)C(=O)O[C@@H]2CCN3CC=C(COC(=O)[C@]1(C)O)[C@H]23`, the TGI was greater than 100 µM.
Still for that read-out and setting: next, `CC(=O)Nc1ccc(-c2nc3cc(Cl)ccc3o2)cc1`: greater than 50 µM; `O=C(/C=C/C=C/c1ccccc1)c1ccc2c(c1)CCCC2`: greater than 100 µM.

The values above are taken from PubChem BioAssay (NCI).
